In brackets after ≈: the same amount, converted by molar mass.

We go through 13 molecules from ChEMBL document CHEMBL3045173, “Synthesis, antibacterial, and antitubercular studies of some novel isatin derivatives” (2012).

Common to all, as to type: functional
Experiment [1] concerns Micrococcus luteus. The experiment is described as follows: Antimicrobial activity against Micrococcus luteus ATCC 4698 at 100 ug/ml after 24 hr by paper disk diffusion method. To be noted: ATCC 4698, 24 h, read-out: IZ. (In general: Agar diffusion results depend on both activity and mobility in agar.)
Experiment [2] has as its system Staphylococcus aureus. Description: Antimicrobial activity against Staphylococcus aureus ATCC 9144 at 100 ug/ml after 24 hr by paper disk diffusion method. The conditions noted are these: ATCC 9144, 24 h, read-out: IZ.
In experiment [3] the test system is Staphylococcus aureus. The experiment is described as follows: Antimicrobial activity against Staphylococcus aureus ATCC 9144 after 24 hr by agar streak dilution method. The conditions noted are these: ATCC 9144, 24 h.
For experiment [4], the system named is Bacillus cereus. The experiment is described as follows: Antimicrobial activity against Bacillus cereus ATCC 11778 after 24 hr by agar streak dilution method. The conditions noted are these: ATCC 11778, 24 h.
Experiment [5] relates to Micrococcus luteus. The experiment is described as follows: Antimicrobial activity against Micrococcus luteus ATCC 4698 after 24 hr by agar streak dilution method. The conditions noted are these: ATCC 4698, 24 h.
Experiment [6] concerns Bacillus cereus. Description: Antimicrobial activity against Bacillus cereus ATCC 11778 at 100 ug/ml after 24 hr by paper disk diffusion method. To be noted: ATCC 11778, 24 h, read-out: IZ.
Experiment [7] concerns Mycobacterium tuberculosis. The experiment is described as follows: Antimicrobial activity against Mycobacterium tuberculosis H37Rv ATCC 27294 after 7 days by MABA. The conditions noted are these: for MIC90: Mycobacterium tuberculosis, H37Rv ATCC 27294, 168 h. A general note: Resazurin is reduced to fluorescent resorufin, in cell work by metabolically active cells.
For experiment [8], the system named is Staphylococcus epidermidis. Description: Antimicrobial activity against Staphylococcus epidermidis ATCC 155 at 100 ug/ml after 24 hr by paper disk diffusion method. To be noted: ATCC 155, 24 h, read-out: IZ.
For experiment [9], the system named is Staphylococcus epidermidis. Description: Antimicrobial activity against Staphylococcus epidermidis ATCC 155 after 24 hr by agar streak dilution method. The conditions noted are these: ATCC 155, 24 h.

A word on the MIC: it is the smallest concentration in the dilution series that meets the test's criterion for growth inhibition. A higher MIC goes with weaker potency. As to `O=C1/C(=N\c2ccc(/N=C/c3ccc([N+](=O)[O-])cc3)cc2)c2ccccc2N1Cc1ccccc1`, the zone of inhibition at 100 µg/mL was found to be 13 mm in experiment [1], 15 mm in [2], 16 mm in experiment [6] and 19 mm in experiment [8]. For the same molecule, the minimum inhibitory concentration (MIC) in experiment [3] amounted to 25.2 µg/mL (≈ 54.7 µM); in experiment [4] it was 19.2 µg/mL (≈ 41.7 µM); in experiment [5] it was 27.8 µg/mL (≈ 60.4 µM); in experiment [9] it was 20.4 µg/mL (≈ 44.3 µM). For the same molecule, in experiment [7], the “inhibition (INH)” value is given as 80%.

Usually MIC90 stands for an inhibitory concentration at the 90% level, which refers to growth in some studies and to a panel of isolates in others. High values mean weaker potency, low ones greater potency. `O=C1/C(=N\c2ccc(/N=C/c3ccc(Br)cc3)cc2)c2ccccc2N1Cc1ccccc1`: the zone of inhibition at 100 µg/mL in [1] was found to be 20 mm; in experiment [2], 19 mm; in [6] it was 17 mm; in [8], 18 mm. Moreover, the MIC in [3] worked out at 19.3 µg/mL (≈ 39 µM); in experiment [4] it was 15.3 µg/mL (≈ 30.9 µM); in [5], 16.3 µg/mL (≈ 33 µM); in experiment [9], 21.2 µg/mL (≈ 42.9 µM). Also, the “inhibition (INH)” value in [7] is recorded as 96%. The same molecule returned an MIC90 in [7] of 4.26 µM (≈ 2.11 µg/mL).

As for `O=C1/C(=N\c2ccc(/N=C/c3ccc(Cl)cc3)cc2)c2ccccc2N1Cc1ccccc1`, the zone of inhibition at 100 µg/mL was 23 mm in experiment [1], 21 mm in [2], 19 mm in experiment [6] and 25 mm in experiment [8]. Further, the minimum inhibitory concentration (MIC) in [3] is 10.4 µg/mL (≈ 23.1 µM); in [4] it was 12.1 µg/mL (≈ 26.9 µM); in experiment [5] it was 11.2 µg/mL (≈ 24.9 µM); in experiment [9], 9.8 µg/mL (≈ 21.8 µM). In experiment [7], the “inhibition (INH)” value is listed as 90%.

Regarding `O=C1/C(=N\c2ccc(/N=C/c3ccccc3O)cc2)c2ccccc2N1Cc1ccccc1`, the zone of inhibition at 100 µg/mL in experiment [1] is 17 mm; in experiment [2], 20 mm; in experiment [6] it was 18 mm; in experiment [8], 20 mm. Besides, the MIC in experiment [3] stood at 13.2 µg/mL (≈ 30.6 µM); in experiment [4], 16.7 µg/mL (≈ 38.7 µM); in [5], 20.6 µg/mL (≈ 47.7 µM); in experiment [9], 17.6 µg/mL (≈ 40.8 µM). Further, in experiment [7], the “inhibition (INH)” value is recorded as 90%.

Turning to `COc1ccc(/C=N/c2ccc(/N=C3\C(=O)N(Cc4ccccc4)c4ccccc43)cc2)cc1`, the zone of inhibition at 100 µg/mL in experiment [1] worked out at 20 mm; in experiment [2] it was 19 mm; in experiment [6], 17 mm; in experiment [8] it was 23 mm. Further, the MIC in [3] stood at 13.6 µg/mL (≈ 30.5 µM); in experiment [4], 17.1 µg/mL (≈ 38.4 µM); in [5] it was 12.4 µg/mL (≈ 27.8 µM); in experiment [9], 14.8 µg/mL (≈ 33.2 µM). Also, in [7], the “inhibition (INH)” value was found to be 80%.

For the molecule `COc1ccc(/C=N/c2ccc(/N=C3\C(=O)N(Cc4ccccc4)c4ccccc43)cc2)cc1OC`, the zone of inhibition at 100 µg/mL in experiment [1] came to 17 mm; in experiment [2], 22 mm; in [6] it was 16 mm; in [8], 18 mm. The minimal inhibitory concentration (MIC) is 11.8 µg/mL (≈ 24.8 µM) in [3], 21.2 µg/mL (≈ 44.6 µM) in experiment [4], 19.6 µg/mL (≈ 41.2 µM) in [5] and 20.2 µg/mL (≈ 42.5 µM) in [9]. Further, in experiment [7], the “inhibition (INH)” value came out at 73%.

Regarding `COc1cc(/C=N/c2ccc(/N=C3\C(=O)N(Cc4ccccc4)c4ccccc43)cc2)ccc1O`, the zone of inhibition at 100 µg/mL came out at 19 mm in [1], 19 mm in [2], 17 mm in [6] and 22 mm in experiment [8]. In addition, the MIC in experiment [3] was determined as 18.2 µg/mL (≈ 39.4 µM); in [4], 18.6 µg/mL (≈ 40.3 µM); in experiment [5], 18.7 µg/mL (≈ 40.5 µM); in experiment [9], 13.8 µg/mL (≈ 29.9 µM). In addition, in experiment [7], the “inhibition (INH)” value amounted to 80%.

For the molecule `CN(C)c1ccc(/C=N/c2ccc(/N=C3\C(=O)N(Cc4ccccc4)c4ccccc43)cc2)cc1`, the zone of inhibition at 100 µg/mL was determined as 18 mm in experiment [1], 17 mm in [2], 15 mm in experiment [6] and 14 mm in experiment [8]. For the same molecule, the MIC was 22.8 µg/mL (≈ 49.7 µM) in experiment [3], 20.7 µg/mL (≈ 45.1 µM) in [4], 19.7 µg/mL (≈ 43 µM) in experiment [5] and 24 µg/mL (≈ 52.3 µM) in [9]. Besides, the “inhibition (INH)” value in experiment [7] is 79%.

As for `O=C(O)c1cn(C2CC2)c2cc(N3CCNCC3)c(F)cc2c1=O` [CIPROFLOXACIN], the zone of inhibition at 100 µg/mL in [1] was 30 mm; in experiment [2], 25 mm; in experiment [6] it was 25 mm; in experiment [8], 29 mm. In addition, the minimal inhibitory concentration (MIC) worked out at 0.2 µg/mL (≈ 0.604 µM) in [3], 0.3 µg/mL (≈ 0.905 µM) in experiment [4], 0.1 µg/mL (≈ 0.302 µM) in experiment [5] and 0.35 µg/mL (≈ 1.06 µM) in experiment [9].

For the molecule `NNC(=O)c1ccncc1` [ISONIAZID], in experiment [7], the “inhibition (INH)” value amounted to 100% and the MIC90 amounted to 0.74 µM (≈ 0.101 µg/mL).

In the case of `COc1c(N2C[C@@H]3CCCN[C@@H]3C2)c(F)cc2c(=O)c(C(=O)O)cn(C3CC3)c12` [MOXIFLOXACIN], in [7], the “inhibition (INH)” value was 100% and the MIC90 worked out at 0.25 µM (≈ 0.1 µg/mL).

As to `O=[N+]([O-])c1cn2c(n1)OC[C@@H](OCc1ccc(OC(F)(F)F)cc1)C2` [PRETOMANID], in experiment [7], the “inhibition (INH)” value is 100% and the MIC90 stood at 0.25 µM (≈ 0.0898 µg/mL).

As to `CO[C@H]1/C=C/O[C@@]2(C)Oc3c(C)c(O)c4c(O)c(c(/C=N/N5CCN(C)CC5)c(O)c4c3C2=O)NC(=O)/C(C)=C\C=C\[C@H](C)[C@H](O)[C@@H](C)[C@@H](O)[C@@H](C)[C@H](OC(C)=O)[C@@H]1C` [RIFAMPIN], in experiment [7], the “inhibition (INH)” value was determined as 100% and the MIC90 is 0.06 µM (≈ 0.0494 µg/mL).
